The values below come from patent US20120136033A1, “Small Molecule Antagonists of Phosphatidylinositol-3,4,5-Triphosphate (PIP3) and Uses Thereof” (President and Fellows of Harvard College, priority 2009, published 2012).

For data set [1], the target named is T1, Akt PH domain (PH123, 1-123 a.a. N-terminal fragment of human Akt1) (Homo sapiens, UniProt P31749).
T1 construct: recombinant GST fusion proteins containing 1-123 a.a; N-terminal fragment of human Akt1 (PH 123); made in house; host or cells: E. coli BL21(DE3)
The data set can be described thus: fluorescence polarization (FP) PIP3/Akt PH domain binding assay. To be noted: 15 nM TMR-PIP3, 5 μM GST-PH domain of Akt, 30 min, read-out: IC50, disruption of PIP3/Akt PH domain binding.
Description: 15 nM TMR-conjugated PIP3 were incubated with 5 μM GST-PH domain of Akt in the presence or absence of the indicated concentrations of PITs (0-200 μM) for 30 min, followed by FP measurement.
In order to identify compounds that disrupt the interaction between PIP3 and PH domains, a high-throughput fluorescence polarization (FP)-binding assay was developed using recombinant 1-123 amino acid N-terminal fragment of human Akt1 (also referred to herein simply as Akt), encompassing the PH domain (PH123 protein), and fluorescent NBD-labeled PIP3 molecule. […] Briefly, 5 μM recombinant GST fusion proteins containing 1-123 a.a. N-terminal fragment of human Akt1 (PH 123) or 100 nM 441-551 a.a. region of human PDK1 were incubated with 15 nM TMR-labeled PIP3, PIP2, or PIP5 in buffer containing 50 mM Tris-HCl (pH 7.5), 150 mM NaCl, and 5 mM b-ME for 15 min at room temperature in the dark. FP values were determined using Wallac Victor 3 plate reader. […] Incubations were carried out for 1 hr. For secondary assays, PIT compounds were added at various concentrations (6.25, 12.5, 25, 50, 100, 150 and 200 μM), followed by a 30 min incubation. The inhibition rates were calculated as: inhibition rate=[1−(compound-treated group/control group)]×100%, and IC50 value was determined using Origin6 software (MicroCal, LLC, Northampton, Mass.).

In another data set the test system is U87MG cells. The data set can be described thus: cell death with pan-caspase inhibitor zVAD.fmk, Sytox assay. It counts as cell-based, human. As to conditions: 100 μM zVAD.fmk, 24 hr. As for the experimental part:
FIG. 11 is a bar graph depicting that cell death triggered by PIT-1 alone or in combination with TRAIL is inhibited by pan-caspase inhibitor zVAD.fmk. U87MG cells were incubated with or without 100 μM zVAD.fmk together with PIT-1 (25, 50, 100 μM) in the presence or absence of 10 ng/ml TRAIL for 24 hr, and analyzed by Sytox cell death assay.
Based on the critical role of PIP3-dependent Akt signaling in the regulation of cell survival, the effect of PIT-1 on the cancer cell viability was tested. […] For the ATP assay, a luminescence-based commercial kit (CellTiter-Glo, Promega, Madison, Wis.) was used. Thirty microliters of cell lysis/ATP detection reagent was added to each well, mixed for 10 min at room temperature, and the luminescence was measured using a Wallac Victor 3 plate reader (Perkin-Elmer, Wellesley, Mass.). […] Twenty microliters of the combined MTS/PMS solution was added into each well, incubated for 4 hr at 37° C., and the absorbance at 490 nm was measured using a Wallac Victor 3 plate reader. For the Sytox cell death assay, measuring loss of plasma membrane integrity, cells were incubated with 1 μM Sytox Green reagent (Molecular Probes, Eugene, Oreg.) for 30 min at 37° C. and the fluorescence intensity was measured using Wallac Victor 3 plate reader with excitation at 485 nm and emission at 545 nm. […]

Data set [2] relates to SUM159 cells transfected with VAV2 or WAVE2. Description: wound healing migration of VAV- or WAVE-overexpressing SUM159 cells. It counts as cell-based, human. To be noted: 100 μM, PDGF, 8 hr. The method, then: SUM159 cells were transfected with VAV2 or WAVE2. Scratch wound was generated in cell monolayer, followed by treatment with PIT-1 (100 μM) in the presence of PDGF (100 ng/ml) stimulation for 8 hr. The inhibitory effect of PITs on VAV- or WAVE-induced cell migration was calculated according to the width of wound. The width of wounded cell monolayers was measured in five random fields.

The test system of the next data set is PI3K-PDK1-Akt pathway. Description: PI3K-PDK1-Akt pathway phosphorylation events in U87MG cells. It counts as cell-based, human. The method, then:
The effect of PIT-1 on PIP3-mediated signaling was examined in U87MG glioblastoma cells, which show elevated basal levels of PIP3 due to the loss of PTEN. Pore N et al. (2003) Cancer Res 63:236-41.

Data set [3] in a line: solubility / precipitation. It counts as physicochemical. The source says:
This method has been reported to be efficient for in vivo targeting of cancer cells by other poorly soluble anti-cancer drugs, such as m-porphyrin, tamoxifen, and taxol. Gao Z et al. (2003) J Drug Target 11:87-92; Torchilin V P et al. (2003) Proc Natl Acad Sci USA 100:6039-44.
The size of the DM-PIT-1-loaded micelles was about 15 nm with a narrow size distribution.

Another data set has as its target T2, PLC-δ PH domain (Homo sapiens, UniProt P51178).
T2 construct: 100 nM PLC-δ PH domain
T2 sequence (P51178 21-130 limits assumed): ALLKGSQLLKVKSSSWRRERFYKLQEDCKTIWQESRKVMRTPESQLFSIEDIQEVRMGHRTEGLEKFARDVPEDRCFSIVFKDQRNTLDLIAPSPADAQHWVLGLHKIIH
Description: FP assay, PIP2 binding to PLC-δ PH domain. To be noted: 15 nM TMR-PIP2, 100 nM PLC-δ PH domain, 0-200 μM. The method, then:
FIG. 5 is a graph depicting specificity and concentration-dependent competitive inhibition of PIP3-PH domain interaction by PIT-1 and PIT-2. 15 nM TMR-conjugated PIP2 were incubated with 100 nM PLC-δ PH domain in the presence or absence of the indicated concentrations of PITs (0-200 μM) for 30 min, followed by FP measurement.
In order to identify compounds that disrupt the interaction between PIP3 and PH domains, a high-throughput fluorescence polarization (FP)-binding assay was developed using recombinant 1-123 amino acid N-terminal fragment of human Akt1 (also referred to herein simply as Akt), encompassing the PH domain (PH123 protein), and fluorescent NBD-labeled PIP3 molecule. The amino acid sequence of human Akt1 is publicly available as, for example, GenBank Accession No. NP_001014432.1 (SEQ ID NO:1), and the corresponding DNA sequence is publicly available as, for example, GenBank Accession No. NM_001014432. Briefly, 5 μM recombinant GST fusion proteins containing 1-123 a.a. N-terminal fragment of human Akt1 (PH 123) or 100 nM 441-551 a.a. region of human PDK1 were incubated with 15 nM TMR-labeled PIP3, PIP2, or PIP5 in buffer containing 50 mM Tris-HCl (pH 7.5), 150 mM NaCl, and 5 mM b-ME for 15 min at room temperature in the dark. FP values were determined using Wallac Victor 3 plate reader. […]

T1 sequence (P31749 1-123): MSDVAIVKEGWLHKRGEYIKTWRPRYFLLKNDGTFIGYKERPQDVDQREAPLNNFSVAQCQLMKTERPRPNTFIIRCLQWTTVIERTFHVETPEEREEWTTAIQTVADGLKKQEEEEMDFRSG

On to `O=C(NC(=S)Nc1cc([N+](=O)[O-])cc(Cl)c1O)c1ccccc1` [PIT-1], for which the IC50 in data set [1] was 28.1 µM. Besides, the “cell death alone or with TRAIL in presence of zVAD.fmk” value with U87MG cells is listed as “inhibited by a pan-caspase inhibitor zVAD.fmk”. Also, the “inhibition of cell migration in VAV- and WAVE-overexpressing cells compared to control cells” value in data set [2] is listed as “larger degree of inhibition”. The “activity of the PI3K-PDK1-Akt pathway in U87MG cells” value with PI3K-PDK1-Akt pathway is “suppressed activity”. Besides, the aqueous solubility entry in data set [3] was “limited aqueous solubility”. For the same compound, on PLC-δ PH domain, the “inhibition of interaction between PIP2 and PH domain of PLC-δ” value is recorded as “failed to inhibit”.

As for `O=C1NC(=S)S/C1=C\c1cc(O)c([N+](=O)[O-])cc1Cc1ccccc1` [PIT-2], in data set [1], the IC50 came to 31.5 µM. For the same compound, the “cell death alone or with TRAIL in presence of zVAD.fmk” value with U87MG cells was “inhibited by a pan-caspase inhibitor zVAD.fmk”. For the same compound, the “inhibition of cell migration in VAV- and WAVE-overexpressing cells compared to control cells” value in data set [2] was “larger degree of inhibition”. The “activity of the PI3K-PDK1-Akt pathway in U87MG cells” value in the data set with PI3K-PDK1-Akt pathway is listed as “suppressed activity”. For the same compound, the aqueous solubility result in data set [3] is “limited aqueous solubility”. Also, the “inhibition of interaction between PIP2 and PH domain of PLC-δ” value at PLC-δ PH domain is recorded as “failed to inhibit”.
